# Laboratory results reported in ChEMBL document CHEMBL1255573, “Synthesis and biochemical characterization of a series of 17α-perfluoroalkylated estradiols as selective ligands for estrogen receptor α” (J Med Chem, 2010).
# Experiments:
# Glucocorticoid receptor [1] = target: T1, Glucocorticoid receptor (Homo sapiens, UniProt P04150)
# T1 sequence (P04150 whole entry): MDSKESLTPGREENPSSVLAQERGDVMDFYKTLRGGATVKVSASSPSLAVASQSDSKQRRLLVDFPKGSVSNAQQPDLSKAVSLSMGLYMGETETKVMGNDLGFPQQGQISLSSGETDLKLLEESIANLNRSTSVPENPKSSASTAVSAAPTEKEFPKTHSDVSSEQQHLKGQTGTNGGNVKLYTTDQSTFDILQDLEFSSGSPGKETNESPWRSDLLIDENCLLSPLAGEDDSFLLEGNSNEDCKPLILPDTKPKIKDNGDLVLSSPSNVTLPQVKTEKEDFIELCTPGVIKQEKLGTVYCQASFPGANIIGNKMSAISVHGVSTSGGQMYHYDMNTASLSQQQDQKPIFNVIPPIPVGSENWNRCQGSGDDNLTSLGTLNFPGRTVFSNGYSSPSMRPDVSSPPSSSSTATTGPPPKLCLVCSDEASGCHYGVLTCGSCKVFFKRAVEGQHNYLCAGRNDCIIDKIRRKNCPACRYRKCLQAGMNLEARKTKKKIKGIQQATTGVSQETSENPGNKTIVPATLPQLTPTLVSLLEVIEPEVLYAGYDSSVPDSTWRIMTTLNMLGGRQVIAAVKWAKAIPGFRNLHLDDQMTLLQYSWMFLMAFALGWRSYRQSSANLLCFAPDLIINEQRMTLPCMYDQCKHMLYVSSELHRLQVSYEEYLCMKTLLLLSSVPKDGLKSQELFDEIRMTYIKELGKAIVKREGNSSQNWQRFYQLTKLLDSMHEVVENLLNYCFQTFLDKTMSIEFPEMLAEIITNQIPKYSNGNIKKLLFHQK
# Description: Agonist activity at glucocorticoid receptor-LBD in human U2OS cells transfected with Gal4-DBD assessed as increase of transactivation activity after 18 hrs by luciferase reporter gene assay
# Estrogen receptor [2] = target: T2, Estrogen receptor (Homo sapiens, UniProt P03372); experiment: Antagonist activity at ERalpha-LBD in human U2OS cells transfected with Gal4-DBD assessed as inhibition of transactivation activity after 18 hrs by luciferase reporter gene assay; format: functional, cell-based
# T2 sequence (P03372 whole entry): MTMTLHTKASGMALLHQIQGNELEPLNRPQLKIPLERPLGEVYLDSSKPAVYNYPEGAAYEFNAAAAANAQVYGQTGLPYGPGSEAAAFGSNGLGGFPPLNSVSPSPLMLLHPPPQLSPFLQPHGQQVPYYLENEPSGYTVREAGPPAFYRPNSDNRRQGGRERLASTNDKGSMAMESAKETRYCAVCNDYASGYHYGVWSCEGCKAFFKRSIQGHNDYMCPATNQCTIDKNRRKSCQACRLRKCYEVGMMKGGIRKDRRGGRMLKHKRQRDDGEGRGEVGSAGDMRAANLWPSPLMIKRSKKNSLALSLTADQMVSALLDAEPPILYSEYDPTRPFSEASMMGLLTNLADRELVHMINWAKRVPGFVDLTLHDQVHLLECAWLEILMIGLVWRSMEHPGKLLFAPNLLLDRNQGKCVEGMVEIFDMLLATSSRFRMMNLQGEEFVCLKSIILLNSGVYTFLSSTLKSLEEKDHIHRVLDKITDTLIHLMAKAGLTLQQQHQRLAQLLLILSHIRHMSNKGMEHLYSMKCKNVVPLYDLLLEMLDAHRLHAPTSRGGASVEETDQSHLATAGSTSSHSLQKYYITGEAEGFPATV
# Estrogen receptor beta [3] = target: T3, Estrogen receptor beta (Homo sapiens, UniProt Q92731); experiment: Agonist activity at ERbeta-LBD in human U2OS cells transfected with Gal4-DBD assessed as increase of transactivation activity after 18 hrs by luciferase reporter gene assay relative to 17-beta-estradiol; format: functional, cell-based
# T3 sequence (Q92731 whole entry, the tested form may be a part): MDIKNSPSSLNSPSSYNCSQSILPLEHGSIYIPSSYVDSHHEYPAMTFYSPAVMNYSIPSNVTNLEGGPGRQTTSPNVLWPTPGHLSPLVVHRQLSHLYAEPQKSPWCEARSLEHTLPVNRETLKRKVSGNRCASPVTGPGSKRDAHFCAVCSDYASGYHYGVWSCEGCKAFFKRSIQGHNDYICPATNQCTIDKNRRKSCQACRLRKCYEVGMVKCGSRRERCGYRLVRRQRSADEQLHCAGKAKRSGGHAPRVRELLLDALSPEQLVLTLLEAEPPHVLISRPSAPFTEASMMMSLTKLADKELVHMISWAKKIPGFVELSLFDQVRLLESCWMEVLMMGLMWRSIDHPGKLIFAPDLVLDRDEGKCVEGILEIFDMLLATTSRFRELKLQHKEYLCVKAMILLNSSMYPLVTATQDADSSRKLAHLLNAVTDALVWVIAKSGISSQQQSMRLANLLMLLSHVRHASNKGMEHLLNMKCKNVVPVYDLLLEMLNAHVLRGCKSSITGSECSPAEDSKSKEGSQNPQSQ
# Estrogen receptor beta [4] = target: T3, Estrogen receptor beta; experiment: Antagonist activity at ERbeta-LBD in human U2OS cells transfected with Gal4-DBD assessed as inhibition of transactivation activity after 18 hrs by luciferase reporter gene assay; format: functional, cell-based
# Glucocorticoid receptor [5] = target: T1, Glucocorticoid receptor; remark: listed apart in the source
# Description: Antagonist activity at glucocorticoid receptor-LBD in human U2OS cells transfected with Gal4-DBD assessed as inhibition of transactivation activity after 18 hrs by luciferase reporter gene assay
# Estrogen receptor [6] = target: T2, Estrogen receptor; experiment: Agonist activity at ERalpha-LBD in human U2OS cells transfected with Gal4-DBD assessed as increase of transactivation activity after 18 hrs by luciferase reporter gene assay; format: functional, cell-based; settings: for pEC50: u2os
# Estrogen receptor beta [7] = target: T3, Estrogen receptor beta; experiment: Agonist activity at ERbeta-LBD in human U2OS cells transfected with Gal4-DBD assessed as increase of transactivation activity after 18 hrs by luciferase reporter gene assay; format: functional, cell-based; settings: for pEC50: u2os
# [8] = target: T4, Mineralocorticoid receptor (Homo sapiens, UniProt P08235); experiment: Agonist activity at mineralocorticoid receptor-LBD in human U2OS cells transfected with Gal4-DBD assessed as increase of transactivation activity after 18 hrs by luciferase reporter gene assay; format: functional, cell-based
# T4 sequence (P08235 whole entry): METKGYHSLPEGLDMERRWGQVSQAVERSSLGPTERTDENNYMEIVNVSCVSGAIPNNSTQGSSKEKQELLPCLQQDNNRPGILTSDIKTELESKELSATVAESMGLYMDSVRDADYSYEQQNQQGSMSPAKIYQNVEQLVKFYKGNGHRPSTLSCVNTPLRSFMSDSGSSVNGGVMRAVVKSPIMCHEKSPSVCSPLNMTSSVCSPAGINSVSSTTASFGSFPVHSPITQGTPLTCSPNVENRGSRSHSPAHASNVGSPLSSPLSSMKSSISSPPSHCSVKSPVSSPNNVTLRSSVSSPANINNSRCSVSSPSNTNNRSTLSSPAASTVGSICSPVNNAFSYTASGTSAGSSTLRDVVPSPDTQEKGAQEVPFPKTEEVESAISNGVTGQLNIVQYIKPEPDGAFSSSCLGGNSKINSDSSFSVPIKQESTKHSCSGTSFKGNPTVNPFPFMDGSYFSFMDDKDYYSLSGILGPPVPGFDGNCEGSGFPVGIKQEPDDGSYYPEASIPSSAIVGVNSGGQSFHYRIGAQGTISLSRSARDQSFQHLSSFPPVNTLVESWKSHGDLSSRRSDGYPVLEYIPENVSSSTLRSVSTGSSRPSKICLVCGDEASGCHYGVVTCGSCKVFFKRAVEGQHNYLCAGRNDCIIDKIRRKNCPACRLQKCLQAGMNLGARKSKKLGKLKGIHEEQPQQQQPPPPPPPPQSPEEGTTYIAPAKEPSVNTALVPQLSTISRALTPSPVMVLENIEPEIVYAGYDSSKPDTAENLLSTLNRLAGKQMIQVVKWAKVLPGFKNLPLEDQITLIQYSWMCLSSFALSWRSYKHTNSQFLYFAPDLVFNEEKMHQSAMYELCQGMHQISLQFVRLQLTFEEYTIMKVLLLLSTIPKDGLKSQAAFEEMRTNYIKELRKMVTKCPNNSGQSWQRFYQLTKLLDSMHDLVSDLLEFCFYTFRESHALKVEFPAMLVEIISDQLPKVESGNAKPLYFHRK
# [9] = target: T4, Mineralocorticoid receptor; experiment: Antagonist activity at mineralocorticoid receptor-LBD in human U2OS cells transfected with Gal4-DBD assessed as inhibition of transactivation activity after 18 hrs by luciferase reporter gene assay; format: functional, cell-based; settings: for pIC50: u2os
Structure (SMILES),EC50 (Glucocorticoid receptor [1]) [µM],IC50 (Estrogen receptor [2]) [µM],Activity (Estrogen receptor beta [3]) [%],IC50 (Estrogen receptor beta [4]) [µM],IC50 (Glucocorticoid receptor [5]) [µM],EC50 (Estrogen receptor [6]) [µM],EC50 (Estrogen receptor beta [7]) [µM],EC50 [8] [µM],IC50 [9] [µM],pEC50 (Estrogen receptor [6]),pEC50 (Estrogen receptor beta [7]),pIC50 [9]
C[C@]12CC[C@@H]3c4ccc(O)cc4CC[C@H]3[C@@H]1CC[C@@]2(O)/C=C/CC(F)(F)C(F)(F)C(F)(F)F,< 15.8,< 15.8,0.35,< 12.4,3.13,0.0355,0.129,< 15.8,3.81,,,
COc1ccc2c(c1)CC[C@@H]1[C@@H]2CC[C@@]2(C)[C@H]1CC[C@@]2(O)C/C=C/CC(F)(F)C(F)(F)C(F)(F)C(F)(F)C(F)(F)C(F)(F)F,0.00673,< 15.8,,< 15.8,< 15.8,,,< 15.8,,> 4.8,> 4.902,> 4.8
C[C@]12CC[C@@H]3c4ccc(O)cc4CC[C@H]3[C@@H]1CC[C@@]2(O)/C=C/CC(F)(F)C(F)(F)C(F)(F)C(F)(F)C(F)(F)C(F)(F)F,< 15.8,< 15.8,,< 11.9,< 15.8,2.08,< 2.75,< 15.8,< 5.36,,,
C[C@]12CC[C@@H]3c4ccc(O)cc4CC[C@H]3[C@@H]1CC[C@@]2(O)C/C=C/CC(F)(C(F)(F)F)C(F)(F)F,< 15.8,< 15.8,,< 4.05,< 13.5,0.403,,< 15.8,5.14,,> 4.8,
C[C@]12CC[C@@H]3c4ccc(O)cc4CC[C@H]3[C@@H]1CC[C@@]2(O)C/C=C/CC(F)(F)C(F)(F)C(F)(F)C(F)(F)C(F)(F)C(F)(F)F,< 15.8,< 15.8,0.88,< 15.8,< 15.8,1.03,0.052,< 15.8,< 4.82,,,
C[C@]12CC[C@@H]3c4ccc(O)cc4CC[C@H]3[C@@H]1CC[C@@]2(O)/C=C/CC(F)(C(F)(F)F)C(F)(F)F,< 15.8,< 15.8,,< 15.7,13.6,9.95,,< 15.8,< 6.65,,> 4.713,
COc1ccc2c(c1)CC[C@@H]1[C@@H]2CC[C@@]2(C)[C@H]1CC[C@@]2(O)C/C=C/CC(F)(F)C(F)(F)C(F)(F)F,< 15.8,< 15.8,,< 15.8,< 15.8,1.66,,< 15.8,,,> 4.817,> 4.8
C[C@]12CC[C@@H]3c4ccc(O)cc4CC[C@H]3[C@@H]1CC[C@@]2(O)C/C=C/CC(F)(F)C(F)(F)C(F)(F)F,< 15.8,< 15.8,0.02,< 15.8,< 5.5,0.485,2.4,< 15.8,,,,> 4.901
COc1ccc2c(c1)CC[C@@H]1[C@@H]2CC[C@@]2(C)[C@H]1CC[C@@]2(O)/C=C/CC(F)(F)C(F)(F)C(F)(F)F,< 15.8,< 15.8,0.01,< 15.8,< 9.25,4.03,5.19,< 15.8,,,,> 4.841
COc1ccc2c(c1)CC[C@@H]1[C@@H]2CC[C@@]2(C)[C@H]1CC[C@@]2(O)/C=C/CC(F)(F)C(F)(F)C(F)(F)C(F)(F)C(F)(F)C(F)(F)F,< 15.8,< 15.8,,< 15.8,< 15.8,,< 8.34,< 15.8,,> 4.8,,> 4.8
